Values after ≈ are worked out from the molar mass of the structure shown. Active and inactive are the calls of the source. The calls are words filed in the database; no cut-off is given here.
What was measured:
Type in all cases: functional
[1] = test system: Pseudomonas aeruginosa; assay: Antibacterial activity against Pseudomonas aeruginosa MTCC 424 after 16 hr by cup-plate method; settings: MTCC 424, 16 h
[2] = test system: Escherichia coli; assay: Antibacterial activity against Escherichia coli MTCC 443 after 16 hr by cup-plate method; settings: MTCC 443, 16 h
[3] = test system: Staphylococcus epidermidis; assay: Antibacterial activity against Staphylococcus epidermidis MTCC 435 after 16 hr by cup-plate method; settings: MTCC 435, 16 h
[4] = test system: Bacillus subtilis; assay: Antibacterial activity against Bacillus subtilis MTCC 441 after 16 hr by cup-plate method; settings: MTCC 441, 16 h
[5] = test system: Staphylococcus aureus; assay: Antibacterial activity against Staphylococcus aureus MTCC 096 after 16 hr by cup-plate method; settings: MTCC 096, 16 h
[6] = test system: Candida albicans; assay: Antifungal activity against Candida albicans MTCC 227 at 100 ug/ml after 28 to 30 hr by cup-plate method; settings: read-out: IZ
[7] = test system: Aspergillus flavus; assay: Antifungal activity against Aspergillus flavus MTCC 277 at 100 ug/ml after 28 to 30 hr by cup-plate method; settings: read-out: IZ
[8] = test system: Aspergillus fumigatus; assay: Antifungal activity against Aspergillus fumigatus MTCC 343 at 100 ug/ml after 28 to 30 hr by cup-plate method; settings: for zone of inhibition at 100 µg/mL: read-out: IZ
[9] = test system: Aspergillus niger; assay: Antifungal activity against Aspergillus niger MTCC 282 at 100 ug/ml after 28 to 30 hr by cup-plate method; settings: for zone of inhibition at 100 µg/mL: read-out: IZ
[10] = test system: Klebsiella pneumoniae; assay: Antibacterial activity against Klebsiella pneumoniae MTCC 432 at 100 ug/ml after 16 to 18 hr by cup-plate method; settings: read-out: IZ
[11] = test system: Salmonella typhi; assay: Antibacterial activity against Salmonella enterica subsp. enterica serovar Typhi MTCC 733 at 100 ug/ml after 16 to 18 hr by cup-plate method; settings: read-out: IZ
[12] = test system: Pseudomonas aeruginosa; assay: Antibacterial activity against Pseudomonas aeruginosa MTCC 424 at 100 ug/ml after 16 to 18 hr by cup-plate method; settings: read-out: IZ
[13] = test system: Escherichia coli; assay: Antibacterial activity against Escherichia coli MTCC 443 at 100 ug/ml after 16 to 18 hr by cup-plate method; settings: read-out: IZ
[14] = test system: Staphylococcus epidermidis; assay: Antibacterial activity against Staphylococcus epidermidis MTCC 435 at 100 ug/ml after 16 to 18 hr by cup-plate method; settings: read-out: IZ
[15] = test system: Bacillus subtilis; assay: Antibacterial activity against Bacillus subtilis MTCC 441 at 100 ug/ml after 16 to 18 hr by cup-plate method; settings: read-out: IZ
[16] = test system: Staphylococcus aureus; assay: Antibacterial activity against Staphylococcus aureus MTCC 096 at 100 ug/ml after 16 to 18 hr by cup-plate method; settings: read-out: IZ
[17] = test system: Candida albicans; assay: Antifungal activity against Candida albicans MTCC 227 after 28 to 30 hr by cup-plate method
[18] = test system: Aspergillus fumigatus; assay: Antifungal activity against Aspergillus fumigatus MTCC 343 after 28 to 30 hr by cup-plate method
[19] = test system: Aspergillus flavus; assay: Antifungal activity against Aspergillus flavus MTCC 277 after 28 to 30 hr by cup-plate method
[20] = test system: Aspergillus niger; assay: Antifungal activity against Aspergillus niger MTCC 282 after 28 to 30 hr by cup-plate method
[21] = test system: Klebsiella pneumoniae; assay: Antibacterial activity against Klebsiella pneumoniae MTCC 432 after 16 hr by cup-plate method; settings: MTCC 432, 16 h

## Brc1ccc2c(c1)Sc1cccnc1N2CCCCN1c2ccc(Br)cc2Sc2cccnc21
[1]
  MIC: 12.5 µg/mL (≈ 20.4 µM)
[2]
  MIC: 12.5 µg/mL (≈ 20.4 µM)
[3]
  MIC: 25 µg/mL (≈ 40.8 µM)
[4]
  MIC: 50 µg/mL (≈ 81.6 µM)
[5]
  MIC: 12.5 µg/mL (≈ 20.4 µM)
[6]
  zone of inhibition at 100 µg/mL: 11 mm
[7]
  zone of inhibition at 100 µg/mL: 10 mm
[8]
  zone of inhibition at 100 µg/mL: 12 mm
[9]
  zone of inhibition at 100 µg/mL: 11 mm
[10]
  zone of inhibition at 100 µg/mL: 11 mm
[11]
  zone of inhibition at 100 µg/mL: 10 mm
[12]
  zone of inhibition at 100 µg/mL: 12 mm
[13]
  zone of inhibition at 100 µg/mL: 12 mm
[14]
  zone of inhibition at 100 µg/mL: 11 mm
[15]
  zone of inhibition at 100 µg/mL: 11 mm
[16]
  zone of inhibition at 100 µg/mL: 12 mm
[17]
  MIC: 50 µg/mL (≈ 81.6 µM)
[18]
  MIC: 12.5 µg/mL (≈ 20.4 µM)
[19]
  MIC: > 50 µg/mL
[20]
  MIC: 50 µg/mL (≈ 81.6 µM)
[21]
  MIC: 50 µg/mL (≈ 81.6 µM)

## Clc1ccc2c(c1)Sc1cccnc1N2CCCCCCN1c2ccc(Cl)cc2Sc2cccnc21
[1]
  MIC: 25 µg/mL (≈ 45.3 µM)
[2]
  MIC: 50 µg/mL (≈ 90.7 µM)
[3]
  MIC: > 50 µg/mL
[4]
  MIC: 25 µg/mL (≈ 45.3 µM)
[5]
  MIC: 25 µg/mL (≈ 45.3 µM)
[6]
  zone of inhibition at 100 µg/mL: 12 mm
[7]
  zone of inhibition at 100 µg/mL: 10 mm
[8]
  zone of inhibition at 100 µg/mL: 12 mm
[9]
  inhibition zone (IZ): inactive
[10]
  zone of inhibition at 100 µg/mL: 11 mm
[11]
  zone of inhibition at 100 µg/mL: 12 mm
[12]
  zone of inhibition at 100 µg/mL: 12 mm
[13]
  zone of inhibition at 100 µg/mL: 11 mm
[14]
  zone of inhibition at 100 µg/mL: 10 mm
[15]
  zone of inhibition at 100 µg/mL: 12 mm
[16]
  zone of inhibition at 100 µg/mL: 12 mm
[17]
  MIC: 12.5 µg/mL (≈ 22.7 µM)
[18]
  MIC: 12.5 µg/mL (≈ 22.7 µM)
[19]
  MIC: > 50 µg/mL
[20]
  MIC: > 50 µg/mL
[21]
  MIC: 50 µg/mL (≈ 90.7 µM)

## CC(=O)Nc1ccc(Cl)cc1Sc1ncccc1[N+](=O)[O-]
[1]
  MIC: 6.25 µg/mL (≈ 19.3 µM)
[2]
  MIC: 12.5 µg/mL (≈ 38.6 µM)
[3]
  MIC: 6.25 µg/mL (≈ 19.3 µM)
[4]
  MIC: 25 µg/mL (≈ 77.2 µM)
[5]
  MIC: 25 µg/mL (≈ 77.2 µM)
[6]
  zone of inhibition at 100 µg/mL: 14 mm
[7]
  zone of inhibition at 100 µg/mL: 12 mm
[8]
  zone of inhibition at 100 µg/mL: 12 mm
[9]
  zone of inhibition at 100 µg/mL: 14 mm
[10]
  zone of inhibition at 100 µg/mL: 13 mm
[11]
  zone of inhibition at 100 µg/mL: 12 mm
[12]
  zone of inhibition at 100 µg/mL: 14 mm
[13]
  zone of inhibition at 100 µg/mL: 12 mm
[14]
  zone of inhibition at 100 µg/mL: 13 mm
[15]
  zone of inhibition at 100 µg/mL: 12 mm
[16]
  zone of inhibition at 100 µg/mL: 12 mm
[17]
  MIC: 6.25 µg/mL (≈ 19.3 µM)
[18]
  MIC: 12.5 µg/mL (≈ 38.6 µM)
[19]
  MIC: 25 µg/mL (≈ 77.2 µM)
[20]
  MIC: 6.25 µg/mL (≈ 19.3 µM)
[21]
  MIC: 6.25 µg/mL (≈ 19.3 µM)

## Fc1ccc2c(c1)Sc1cccnc1N2CCCCN1c2ccc(F)cc2Sc2cccnc21
[1]
  MIC: > 50 µg/mL
[2]
  MIC: 25 µg/mL (≈ 51 µM)
[3]
  MIC: 12.5 µg/mL (≈ 25.5 µM)
[4]
  MIC: 12.5 µg/mL (≈ 25.5 µM)
[5]
  MIC: 25 µg/mL (≈ 51 µM)
[6]
  zone of inhibition at 100 µg/mL: 10 mm
[7]
  zone of inhibition at 100 µg/mL: 12 mm
[8]
  zone of inhibition at 100 µg/mL: 10 mm
[9]
  zone of inhibition at 100 µg/mL: 11 mm
[10]
  zone of inhibition at 100 µg/mL: 11 mm
[11]
  zone of inhibition at 100 µg/mL: 12 mm
[12]
  zone of inhibition at 100 µg/mL: 10 mm
[13]
  zone of inhibition at 100 µg/mL: 11 mm
[14]
  zone of inhibition at 100 µg/mL: 12 mm
[15]
  zone of inhibition at 100 µg/mL: 12 mm
[16]
  zone of inhibition at 100 µg/mL: 11 mm
[17]
  MIC: > 50 µg/mL
[18]
  MIC: > 50 µg/mL
[19]
  MIC: 25 µg/mL (≈ 51 µM)
[20]
  MIC: 50 µg/mL (≈ 102 µM)
[21]
  MIC: 50 µg/mL (≈ 102 µM)

## Clc1ccc(COC(Cn2ccnc2)c2ccc(Cl)cc2Cl)c(Cl)c1 (stereo not drawn) [MICONAZOLE]
[6]
  zone of inhibition at 100 µg/mL: 19 mm
[7]
  zone of inhibition at 100 µg/mL: 17 mm
[8]
  zone of inhibition at 100 µg/mL: 15 mm
[9]
  zone of inhibition at 100 µg/mL: 18 mm
[17]
  MIC: 6.25 µg/mL (≈ 15 µM)
[18]
  MIC: 6.25 µg/mL (≈ 15 µM)
[19]
  MIC: 12.5 µg/mL (≈ 30 µM)
[20]
  MIC: 6.25 µg/mL (≈ 15 µM)

## CC(=O)Nc1ccccc1Sc1ncccc1[N+](=O)[O-]
[1]
  MIC: 12.5 µg/mL (≈ 43.2 µM)
[2]
  MIC: > 50 µg/mL
[3]
  MIC: 25 µg/mL (≈ 86.4 µM)
[4]
  MIC: 25 µg/mL (≈ 86.4 µM)
[5]
  MIC: > 50 µg/mL
[6]
  zone of inhibition at 100 µg/mL: 12 mm
[7]
  zone of inhibition at 100 µg/mL: 12 mm
[8]
  inhibition zone (IZ): inactive
[9]
  inhibition zone (IZ): inactive
[10]
  zone of inhibition at 100 µg/mL: 11 mm
[11]
  zone of inhibition at 100 µg/mL: 12 mm
[12]
  zone of inhibition at 100 µg/mL: 12 mm
[13]
  zone of inhibition at 100 µg/mL: 10 mm
[14]
  zone of inhibition at 100 µg/mL: 11 mm
[15]
  zone of inhibition at 100 µg/mL: 12 mm
[16]
  zone of inhibition at 100 µg/mL: 11 mm
[17]
  MIC: 12.5 µg/mL (≈ 43.2 µM)
[18]
  MIC: > 50 µg/mL
[19]
  MIC: 12.5 µg/mL (≈ 43.2 µM)
[20]
  MIC: > 50 µg/mL
[21]
  MIC: 50 µg/mL (≈ 173 µM)
